Legend:
C. albicans [1] = test system: C. albicans; design: key: I = intermediate activity; S = susceptibility; R = Resistance; conditions: C. albicans clinical strain; cited from earlier work
C. glabrata = test system: C. glabrata; design: key: I = intermediate activity; S = susceptibility; R = Resistance; conditions: C. glabrata clinical strain; cited from earlier work
C. tropicalis [2] = test system: C. tropicalis; design: key: I = intermediate activity; S = susceptibility; R = Resistance; conditions: C. tropicalis clinical strain; cited from earlier work
C. parapsilosis [3] = test system: C. parapsilosis; design: key: I = intermediate activity; S = susceptibility; R = Resistance; conditions: C. parapsilosis clinical strain; cited from earlier work
C. lusitaniae [4] = test system: C. lusitaniae; design: key: I = intermediate activity; S = susceptibility; R = Resistance; conditions: C. lusitaniae clinical strain; cited from earlier work
C. Krusei = test system: C. Krusei; design: key: I = intermediate activity; S = susceptibility; R = Resistance; conditions: C. Krusei clinical strain; cited from earlier work
C. guillermondii [5] = test system: C. guillermondii; design: key: I = intermediate activity; S = susceptibility; R = Resistance; conditions: C. guillermondii clinical strain; cited from earlier work
A. fumigatus [6] = test system: A. fumigatus; design: key: I = intermediate activity; S = susceptibility; R = Resistance; conditions: A. fumigatus clinical strain; cited from earlier work
A. niger [7] = test system: A. niger; design: key: I = intermediate activity; S = susceptibility; R = Resistance; conditions: A. niger clinical strain; cited from earlier work
A. terreus [8] = test system: A. terreus; design: key: I = intermediate activity; S = susceptibility; R = Resistance; conditions: A. terreus clinical strain; cited from earlier work
A. flavus [9] = test system: A. flavus; design: key: I = intermediate activity; S = susceptibility; R = Resistance; conditions: A. flavus clinical strain; cited from earlier work
S. cerevisiae [10] = test system: S. cerevisiae; design: key: I = intermediate activity; S = susceptibility; R = Resistance; conditions: S. cerevisiae clinical strain; cited from earlier work
A. flavus [11] = test: Antifungal disk diffusion susceptibility test (CLSI M44); type: cell-based; conditions: Aspergillus flavus; A. flavus; 10 μg control
Protocol: (§1) Filamentous fungi and yeasts strains, from clinical origin, were supplied by Microbiology Service from The Princess Hospital, Madrid. They are detailed in Table IX.
(§2) Filamentous fungi and yeast cells suspensions in distilled water was prepared from a culture of 24-48 h, depending on species, in Sabouraud agar. Each suspension was adjusted to a fixed size inoculum of 1-5×10^8 CFU/ml with a spectrophotometer (Ferraro, MJ National Committee for Clinical Laboratory Standards. 2000).
(§3) Antifungal susceptibility tests were developed following the standardized methodology detailed in document CLSI: M44-4: Method for Antifungal Disk diffusion susceptibility testing of yeasts consisting of disk diffusion on agar Muller-Hinton (supplemented with 2% glucose).

A. fumigatus [12] = test: as above; type: cell-based; conditions: Aspergillus fumigatus; A. fumigatus; 10 μg control
Protocol: as §1, §2, §3

A. niger [13] = test: as above; type: cell-based; conditions: Aspergillus niger; A. niger; 10 μg control
Protocol: as §1, §2, §3

A. terreus [14] = test: as above; type: cell-based; conditions: Aspergillus terreus; A. terreus; 10 μg control
Protocol: as §1, §2, §3

C. albicans [15] = test: as above; type: cell-based; conditions: Candida albicans; C. albicans; 10 μg control
Protocol: as §1, §2, §3

C. guillermondii [16] = test: as above; type: cell-based; conditions: C. guillermondii; 10 μg control
Protocol: as §1, §2, §3

C. lusitaniae [17] = test: as above; type: cell-based; conditions: Clavispora lusitaniae; C. lusitaniae; 10 μg control
Protocol: as §1, §2, §3

C. parapsilosis [18] = test: as above; type: cell-based; conditions: Lodderomyces parapsilosis; C. parapsilosis; 10 μg control
Protocol: as §1, §2, §3

C. tropicalis [19] = test: as above; type: cell-based; conditions: Candida tropicalis; C. tropicalis; 10 μg control
Protocol: as §1, §2, §3

S. cerevisiae [20] = test: as above; type: cell-based; conditions: Saccharomyces cerevisiae; S. cerevisiae; 10 μg control
Protocol: as §1, §2, §3

Row | SMILES | Susceptibility of the strain (C. albicans [1]) | Susceptibility of the strain (C. glabrata) | Susceptibility of the strain (C. tropicalis [2]) | Susceptibility of the strain (C. parapsilosis [3]) | Susceptibility of the strain (C. lusitaniae [4]) | Susceptibility of the strain (C. Krusei) | Susceptibility of the strain (C. guillermondii [5]) | Susceptibility of the strain (A. fumigatus [6]) | Susceptibility of the strain (A. niger [7]) | Susceptibility of the strain (A. terreus [8]) | Susceptibility of the strain (A. flavus [9]) | Susceptibility of the strain (S. cerevisiae [10]) | other results
1 | C[C@@H]1[C@H](O)[C@@H](C)/C=C/C=C/C=C/C=C/C=C/C=C/C=C/[C@H](O[C@@H]2O[C@H](C)[C@@H](O)[C@H](N)[C@@H]2O)C[C@@H]2O[C@](O)(C[C@@H](O)C[C@@H](O)[C@H](O)CC[C@@H](O)C[C@@H](O)CC(=O)O[C@H]1C)C[C@H](O)[C@H]2C(=O)O [Amphotericin B] | I | S | S | S | I | I | R | S | S | I | I | I | –
2 | Clc1ccccc1C(c1ccccc1)(c1ccccc1)n1ccnc1 [Clo, clotrimazol] | S | S | S | S | S | S | R | S | S | S | S | R | zone of inhibition at 10 µg/disc (A. flavus [11]): 32 mm; zone of inhibition at 10 µg/disc (A. fumigatus [12]): 22 mm; zone of inhibition at 10 µg/disc (A. niger [13]): 25 mm; zone of inhibition at 10 µg/disc (A. terreus [14]): 26 mm; zone of inhibition at 10 µg/disc (C. albicans [15]): 15 mm; zone of inhibition at 10 µg/disc (C. guillermondii [16]): 44 mm; zone of inhibition at 10 µg/disc (C. lusitaniae [17]): 41 mm; zone of inhibition at 10 µg/disc (C. parapsilosis [18]): 42 mm; zone of inhibition at 10 µg/disc (C. tropicalis [19]): 25 mm; zone of inhibition at 10 µg/disc (S. cerevisiae [20]): 30 mm
3 | OC(Cn1cncn1)(Cn1cncn1)c1ccc(F)cc1F [Fluconazole] | S | S | S | S | S | S | R | R | R | R | R | S | –

— US11584710B2, “Compounds for treating infections” (HORITZONTS TECNOLOGICS HUNGARY KORLÁTOLT FELELOSSÉGU …, priority 2017, dated 2023)
